# From patent US7858635B2 (priority 2005, dated 2010)
# Key:
# M1 muscarinic receptor = molecular target: T1, M1 muscarinic receptor (Homo sapiens, UniProt P11229); experiment: Functional mobilization of intracellular calcium (FLIPR, Fluo-3), M1-CHO cells; format: cell-based; conditions: compound nos. 1-454; for Emax: 100% efficacy is the maximum response obtained with the Carbachol control, read-out: M1 Efficacy; for M1 Activity: M1-CHO cells, calcium mobilization
# T1 construct: expressed in transfected cells; host or cells: CHO cells (M1-CHO, under zeocin and G418 selection)
# T1 sequence (P11229 1-460): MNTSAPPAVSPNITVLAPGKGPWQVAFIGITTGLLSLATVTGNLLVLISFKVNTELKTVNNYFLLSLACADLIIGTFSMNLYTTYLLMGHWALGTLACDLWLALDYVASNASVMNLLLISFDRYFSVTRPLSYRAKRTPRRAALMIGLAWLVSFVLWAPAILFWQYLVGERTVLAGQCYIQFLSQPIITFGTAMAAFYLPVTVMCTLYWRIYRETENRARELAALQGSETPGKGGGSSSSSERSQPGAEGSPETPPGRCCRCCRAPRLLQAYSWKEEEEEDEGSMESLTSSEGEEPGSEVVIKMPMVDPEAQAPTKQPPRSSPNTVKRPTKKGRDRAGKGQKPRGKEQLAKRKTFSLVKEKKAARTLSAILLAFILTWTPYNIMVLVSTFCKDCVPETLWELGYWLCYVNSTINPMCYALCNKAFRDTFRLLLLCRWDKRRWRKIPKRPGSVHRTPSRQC
# Method in brief: (§1)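 CHO lines stably carrying the muscarinic subtype, dye-loaded with Fluo-3 at 37° C for 60-90 min, receive test compound in 0.5% DMSO. Agonist effects are read directly; antagonist effects against carbachol at EC80 after 15 min pre-incubation.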
# M4 muscarinic receptor = molecular target: T2, M4 muscarinic receptor (Homo sapiens, UniProt P08173); experiment: Functional mobilization of intracellular calcium (FLIPR, Fluo-3), M4-CHO cells; format: cell-based; conditions: compound nos. 1-454; for Emax: 100% efficacy is the maximum response obtained with the Carbachol control, read-out: M4 Efficacy; for M4 Activity: M4-CHO cells, calcium mobilization
# T2 construct: expressed in transfected cells; host or cells: CHO cells (M4-CHO, under puromycin, zeocin and blasticidin selection)
# T2 sequence (P08173 1-479): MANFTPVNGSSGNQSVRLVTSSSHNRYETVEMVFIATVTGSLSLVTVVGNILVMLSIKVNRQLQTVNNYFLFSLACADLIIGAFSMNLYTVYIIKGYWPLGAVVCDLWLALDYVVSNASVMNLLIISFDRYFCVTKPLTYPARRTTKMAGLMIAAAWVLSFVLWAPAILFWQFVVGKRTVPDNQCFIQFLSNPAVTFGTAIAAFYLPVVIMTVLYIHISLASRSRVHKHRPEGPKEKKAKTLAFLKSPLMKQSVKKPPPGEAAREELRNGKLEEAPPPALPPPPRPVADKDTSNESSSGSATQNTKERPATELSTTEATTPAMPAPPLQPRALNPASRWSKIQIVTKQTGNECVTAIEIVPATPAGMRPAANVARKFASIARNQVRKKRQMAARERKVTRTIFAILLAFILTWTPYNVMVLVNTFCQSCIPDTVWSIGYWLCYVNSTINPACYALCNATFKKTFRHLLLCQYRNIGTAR
# Method in brief: as §1
SMILES,Emax (M1 muscarinic receptor) [%],M1 Activity (M1 muscarinic receptor),Emax (M4 muscarinic receptor) [%],M4 Activity (M4 muscarinic receptor)
c1ccc2c(c1)NCC21CCN(CC2CC3CCC2C3)CC1 (stereo not shown) [compound 110],< 65,+++ (activity was measured to be less than or equal to 0.7 μM),< 55,++ (activity was measured to be between 0.1 μM and 4.0 μM)
Fc1ccc2c(c1)C1(CCN(C3CCC4CCC3C4)CC1)CN2 (stereo not shown) [compound 111],65 to 85,+++ (activity was measured to be less than or equal to 0.7 μM),< 55,++ (activity was measured to be between 0.1 μM and 4.0 μM)
O=C(O[C@@H]1CCOC1)N1CC2(CCN(C3CC4CCC(C3)N4C(=O)O[C@@H]3CCOC3)CC2)c2cc(F)ccc21 (stereo partly shown) [compound 112],65 to 85,+++ (activity was measured to be less than or equal to 0.7 μM),< 55,++ (activity was measured to be between 0.1 μM and 4.0 μM)
CCOC(=O)N1CCC(N2CCC3(CC2)CN(C(C)=O)c2ccc(F)cc23)C1 (stereo not shown) [compound 113],65 to 85,+++ (activity was measured to be less than or equal to 0.7 μM),< 55,+ (activity was measured to be greater than or equal to 4.0 μM)
CCCOC(=O)N1CC2(CCN(C3CCN(C(=O)OCC)CC3)CC2)c2cc(F)ccc21 [compound 114],65 to 85,++ (activity was measured to be between 0.7 μM and 3.0 μM),< 55,+ (activity was measured to be greater than or equal to 4.0 μM)
CCCOC(=O)N1C2CCC1CC(N1CCC3(CC1)CN(C(=O)O[C@@H]1CCOC1)c1ccc(F)cc13)C2 (stereo partly shown) [compound 115],65 to 85,+++ (activity was measured to be less than or equal to 0.7 μM),< 55,++ (activity was measured to be between 0.1 μM and 4.0 μM)
Cc1ccc2c(c1)C1(CCN(C3CC4CCC3C4)CC1)CN2C(=O)OC(C)(C)C (stereo not shown) [compound 116],65 to 85,+++ (activity was measured to be less than or equal to 0.7 μM),< 55,++ (activity was measured to be between 0.1 μM and 4.0 μM)
COCCOC(=O)N1CC2(CCN(C3CC4CCC(C3)N4C(=O)OCCOC)CC2)c2cc(F)ccc21 (stereo not shown) [compound 117],65 to 85,+++ (activity was measured to be less than or equal to 0.7 μM),< 55,++ (activity was measured to be between 0.1 μM and 4.0 μM)
CC(=O)N1CC2(CCN(CC3CC4CCC3C4)CC2)c2cc(C)ccc21 (stereo not shown) [compound 118],65 to 85,+++ (activity was measured to be less than or equal to 0.7 μM),< 55,+ (activity was measured to be greater than or equal to 4.0 μM)
"COCCOC(=O)N1C2CCC1CC(N1CCC3(CC1)CN(C(=O)N(C)C)c1ccc(F)cc13)C2 (stereo not shown) [compound 119, 2-methoxyethyl 3-(1-(dimethylcarbamoyl)-5-fluorospiro[indoline-3,4′-piperidine]-1′-yl)-8-azabicyclo[3.2.1]octane-8-carboxylate]",< 65,+++ (activity was measured to be less than or equal to 0.7 μM),< 55,+ (activity was measured to be greater than or equal to 4.0 μM)
CN(C)C(=O)N1CC2(CCN(C3CCN(C(=O)O[C@H]4CCOC4)CC3)CC2)c2cc(F)ccc21 [compound 120],< 65,++ (activity was measured to be between 0.7 μM and 3.0 μM),< 55,+ (activity was measured to be greater than or equal to 4.0 μM)
CS(=O)(=O)N1CC2(CCN(C3CC4CCC(C3)N4C(=O)OC3CCC3)CC2)c2cc(F)ccc21 (stereo not shown) [compound 122],65 to 85,+++ (activity was measured to be less than or equal to 0.7 μM),< 55,++ (activity was measured to be between 0.1 μM and 4.0 μM)
O=C(OC1CCC1)N1C2CCC1CC(N1CCC3(CC1)COc1ccc(F)cc13)C2 (stereo not shown) [compound 123],< 65,++ (activity was measured to be between 0.7 μM and 3.0 μM),< 55,+ (activity was measured to be greater than or equal to 4.0 μM)
O=C(OCC(F)(F)F)N1C2CCC1CC(N1CCC3(CC1)COc1ccc(F)cc13)C2 (stereo not shown) [compound 124],< 65,+++ (activity was measured to be less than or equal to 0.7 μM),< 55,++ (activity was measured to be between 0.1 μM and 4.0 μM)
O=C(OC1CCC1)N1CC2(CCN(C3CC4CCC(C3)N4C(=O)O[C@H]3CCOC3)CC2)c2cc(F)ccc21 (stereo partly shown) [compound 125],65 to 85,+++ (activity was measured to be less than or equal to 0.7 μM),< 55,++ (activity was measured to be between 0.1 μM and 4.0 μM)
CCOC(=O)N1CCC(N2CCC3(CC2)CN(C(C)=O)c2ccc(-c4ccccc4)cc23)CC1 [compound 126],< 65,+++ (activity was measured to be less than or equal to 0.7 μM),< 55,+ (activity was measured to be greater than or equal to 4.0 μM)
C#CCCOC(=O)N1CCC(N2CCC3(CC2)CN(C(=O)N(C)C)c2ccc(F)cc23)CC1 [compound 127],65 to 85,+++ (activity was measured to be less than or equal to 0.7 μM),< 55,++ (activity was measured to be between 0.1 μM and 4.0 μM)
CCOC(=O)N1CCC(N2CCC3(CC2)CN(C(C)=O)c2ccc(-c4ccoc4)cc23)CC1 [compound 128],< 65,+++ (activity was measured to be less than or equal to 0.7 μM),< 55,++ (activity was measured to be between 0.1 μM and 4.0 μM)
COC(=O)N1CCC(CN2CCC3(CC2)CN(C(C)=O)c2ccc(F)cc23)CC1 [compound 129],65 to 85,+++ (activity was measured to be less than or equal to 0.7 μM),< 55,+ (activity was measured to be greater than or equal to 4.0 μM)
CN(C)C(=O)N1CC2(CCN(C3CC4CCC(C3)N4C(=O)O[C@H]3CCOC3)CC2)c2cc(F)ccc21 (stereo partly shown) [compound 130],< 65,+++ (activity was measured to be less than or equal to 0.7 μM),< 55,++ (activity was measured to be between 0.1 μM and 4.0 μM)
CCCC1CCC(N2CCC3(CC2)CN(C(C)=O)c2ccc(F)cc23)CC1 (stereo not shown) [compound 131],65 to 85,+++ (activity was measured to be less than or equal to 0.7 μM),> 70,++ (activity was measured to be between 0.1 μM and 4.0 μM)
COC(=O)N1CCCC(N2CCC3(CC2)CN(C(C)=O)c2ccc(F)cc23)CC1 (stereo not shown) [compound 132],> 85,+++ (activity was measured to be less than or equal to 0.7 μM),> 70,+++ (activity was measured to be less than or equal to 0.1 μM)
O=C(OC1CCCC1)N1C2CCC1CC(N1CCC3(CC1)COc1ccc(F)cc13)C2 (stereo not shown) [compound 133],> 85,+++ (activity was measured to be less than or equal to 0.7 μM),55 to 70,++ (activity was measured to be between 0.1 μM and 4.0 μM)
O=C(C1CCC1)N1C2CCC1CC(N1CCC3(CC1)COc1ccc(F)cc13)C2 (stereo not shown) [compound 134],> 85,+++ (activity was measured to be less than or equal to 0.7 μM),< 55,++ (activity was measured to be between 0.1 μM and 4.0 μM)
CC(=O)N1CC2(CCN(CC3CCOC3)CC2)c2cc(F)ccc21 (stereo not shown) [compound 135],> 85,+++ (activity was measured to be less than or equal to 0.7 μM),> 70,++ (activity was measured to be between 0.1 μM and 4.0 μM)
